The values below come from US8420697B2, “Treatment of acute exacerbation of asthma and reduction of likelihood of hospitalization of patients suffering therefrom” (MediciNova, Inc., priority 2009, dated 2013).

The structures appear in SMILES notation. Counter-ions that a name gives are not always drawn. Marks after values point to notes of the source that are not given here.

Data set [1] has as its target T1, Human β1 (Homo sapiens, UniProt P08588).
T1 construct: host or cells: HEK
The data set can be described thus: Competitive binding (Cerep 14320), human β1. The conditions noted are these: HEK (Human β1). An excerpt: (§1) The Active Agent (MN-221 a/k/a bedoradrine or its pharmaceutically acceptable salts) administered intravenously allows it to distribute and partition into the congested lung tissue of AEA patients and allow bronchodilation without undue cardiovascular side effects. Table 1, below, provides an example of the adrenoceptor action profile for MN-221 determined experimentally: [table]

In data set [2] the target is T2, Hu β2 (Homo sapiens, UniProt P07550).
T2 construct: host or cells: CHO
T2 sequence (P07550 whole entry): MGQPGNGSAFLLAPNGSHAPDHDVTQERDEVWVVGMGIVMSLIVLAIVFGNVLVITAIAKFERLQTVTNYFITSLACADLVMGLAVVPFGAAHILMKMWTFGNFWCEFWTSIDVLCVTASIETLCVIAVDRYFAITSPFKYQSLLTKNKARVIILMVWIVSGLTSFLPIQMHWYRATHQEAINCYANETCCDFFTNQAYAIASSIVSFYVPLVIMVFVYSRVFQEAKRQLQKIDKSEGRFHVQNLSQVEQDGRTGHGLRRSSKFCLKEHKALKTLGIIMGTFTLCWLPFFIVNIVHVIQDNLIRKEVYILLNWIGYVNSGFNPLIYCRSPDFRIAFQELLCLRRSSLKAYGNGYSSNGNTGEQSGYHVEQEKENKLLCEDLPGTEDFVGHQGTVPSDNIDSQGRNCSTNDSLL
As to the kind of experiment: Cell bioassay, cAMP accumulation, human β2 in CHO. It counts as cell-based.
Source text: as §1

Data set [3] concerns the target T1, Human β1. As to the kind of experiment: Cell bioassay, cAMP accumulation, human β1 in HEK. Type of data set: cell-based. The conditions noted are these: read-out: cell bioassay (EC50 cAMP accum.) β1.
Source text: as §1

For the next data set, the system named is patients with severe AEA. As to the kind of experiment: Clinical study of MN-221 plus SOC in emergency department patients with AEA. Type of data set: in vivo, humans. The method, then: MN-221 was tested at escalating doses of 240 μg to 1,080 μg in patients with AEA treated in emergency departments (EDs). The study included 29 (13 treated with SOC only and 16 treated with MN-221 in combination with SOC) patients with severe AEA. All patients were administered SOC treatment as follows: supplemental oxygen given to maintain oxygen saturation measured by pulse oximetry of ≧90%; two doses of inhaled beta2-agonist (in this study, albuterol 5 mg) via nebulizer given approximately every 20 minutes; simultaneously with two doses of an inhaled anti-cholinergic agent (in this study, ipratropium 0.5 mg) via nebulizer given approximately every 20 minutes; one dose of corticosteroid given orally (in this study, prednisone 60 mg) or intravenously (in this study, methylprednisolone 125 mg), and intravenous magnesium sulfate (2 gm, diluted with 50-100 mL normal saline) and given over 10 minutes to patients with an FEV1≦25% of predicted upon ED presentation treatment.
MN-221 was administered at the following doses: 16 μg/min for 15 minutes (total of 240 μg); 30 μg/min for 15 minutes (total of 450 μg); 16 μg/min for 15 minutes; 8 μg/min for 105 minutes (total of 1,080 μg). A lyophilized unit dose for of MN-221, containing 2 mg MN-221 and lactose in a 10 mL vial was employed in the administration. Vials containing 2 mg (2000 μg) of MN-221 and vials containing placebo were reconstituted as follows. 4 mL of 5% dextrose in water was added to each 10 mL vial containing MN-221 to make 500 μg/mL stock solution (2000 μg/4 mL=500 μg/mL). 2 mL (1,000 μg) of stock solution was added to 123 mL 5% dextrose in water to make the total volume of 125 mL (123 mL+2 mL=125 mL). Final MN-221 solution equal to 1,000 μg/125 mL or 8 μg/mL was prepared this way.
Patients were administered SOC treatment (inhaled albuterol, 2.5 mg via nebulizer up to every 20 minutes) and ipratropium (0.5 mg via nebulizer up to every 20 minutes) in addition to treatment with MN-221 or placebo.

The subject of a further data set is telemetered dogs. The data set can be described thus: Cardiovascular safety in telemetered dogs, i.v. MN-221 with nebulized albuterol. It counts as in vivo. The conditions noted are these: for heart rate, agent alone: albuterol inhaled 5 or 10 ug/kg, MN-221 i.v. over 15 min 0.3, 3 or 30 ug/kg; for MAP or QTc, agent alone: either agent at any dose. The method, then: In a separate study with telemetered dogs at the Lovelace Respiratory Research Institute, the effect of i.v. MN-221 administration in addition to nebulized albuterol was performed to assess cardiovascular changes and safety of the combination therapy. Albuterol was administered by inhalation at 5 or 10 ug/kg and MN-221 was intravenously administered over 15 min at 0.3, 3, or 30 ug/kg. […] See, FIG. 4.

Data set [4] concerns the target T3, β2 (GP carbachol-tx trachea) (Cavia porcellus, UniProt Q8K4Z4).
T3 construct: tissue Cerep; host or cells: guinea pig trachea, carbachol-contracted
The data set can be described thus: Ex vivo organ bioassay (Cerep 13271), GP carbachol-treated trachea.
Source text: as §1

Data set [5] deals with T2, Hu β2. As to the kind of experiment: Competitive binding (Cerep 14320), human β2.
Source text: as §1

The subject of the next data set is β1 (GP Rt atrium). As to the kind of experiment: Ex vivo organ bioassay (Cerep 13271), GP right atrium.
Source text: as §1

The test system of the next data set is ragweed sensitized dogs. As to the kind of experiment: Reversal of ragweed-induced bronchoconstriction in sensitized dogs. To be noted: i.v. 0.04 to 0.4 mg/kg; between 0.75 and 6.7 min after dosing; p<0.001 up to 4.5 min, p<0.01 up to 6.7 min. Type of data set: in vivo.

T3 sequence (Q8K4Z4 whole entry): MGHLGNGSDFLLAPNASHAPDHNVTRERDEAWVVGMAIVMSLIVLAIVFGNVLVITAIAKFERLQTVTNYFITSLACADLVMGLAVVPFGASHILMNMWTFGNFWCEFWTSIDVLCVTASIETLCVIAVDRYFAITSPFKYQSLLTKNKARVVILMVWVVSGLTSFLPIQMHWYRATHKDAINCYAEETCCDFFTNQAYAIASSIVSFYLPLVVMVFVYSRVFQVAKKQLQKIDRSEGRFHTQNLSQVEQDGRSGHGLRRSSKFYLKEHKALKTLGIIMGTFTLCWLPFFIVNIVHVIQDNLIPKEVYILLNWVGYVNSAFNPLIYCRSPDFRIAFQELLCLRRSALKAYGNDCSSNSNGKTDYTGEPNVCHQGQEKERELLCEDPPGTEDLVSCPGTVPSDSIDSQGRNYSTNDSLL
T1 sequence (P08588 whole entry): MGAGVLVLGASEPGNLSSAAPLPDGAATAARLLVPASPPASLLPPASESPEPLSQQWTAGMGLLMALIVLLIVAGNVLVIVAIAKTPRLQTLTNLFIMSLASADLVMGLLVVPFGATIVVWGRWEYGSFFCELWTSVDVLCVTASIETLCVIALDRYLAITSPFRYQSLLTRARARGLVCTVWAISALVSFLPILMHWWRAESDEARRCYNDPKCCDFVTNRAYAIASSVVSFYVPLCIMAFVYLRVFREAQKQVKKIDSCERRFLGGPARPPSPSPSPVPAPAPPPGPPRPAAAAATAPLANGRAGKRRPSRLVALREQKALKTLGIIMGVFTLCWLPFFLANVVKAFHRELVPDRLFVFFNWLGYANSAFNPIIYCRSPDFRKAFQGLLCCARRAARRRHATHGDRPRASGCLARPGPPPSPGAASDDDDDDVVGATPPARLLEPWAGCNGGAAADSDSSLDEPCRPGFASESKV

As usually defined, the IC50 is the concentration that gives 50% inhibition. Low readings indicate inhibition by little substance, high ones a need for much substance. The term EC50 denotes the midpoint of the concentration-response curve. Turning to `CN(C)C(=O)COc1ccc2c(c1)C[C@@H](NC[C@H](O)c1ccc(O)c(CCO)c1)CC2` [MN-221, acetamide, N,N-dimethyl-2-[[(7S)-5,6,7,8-tetrahydro-7-[[(2R)-2-hydroxy-2-[4-hydroxy-3-(2-hydroxyethyl)phenyl]ethyl]amino]-2-naphthalenyl]oxy], sulfate], the IC50 at Human β1 [1] came out at 11800 nM; on Hu β2 [5] (CHO (Hu β2)), 270 nM. In addition, the EC50 is 13 nM at Hu β2 [2] (CHO (Hu β2), read-out: cell bioassay (EC50 cAMP accum.) β2); greater than 50000 nM at Human β1 [3]; 28 nM in [4] (GP carbachol-tx trachea (% salbut)). The “cell bioassay cAMP accum. β1/β2” value at Hu β2 [2] (ratio of EC50 β1 to β2) was greater than 3000. In addition, in the data set on patients with severe AEA (MN-221 added to standardized care), the “safety (ECG, laboratory, adverse experience data)” value is on record as “No safety concerns”. Moreover, the “heart rate change in patients” value in the data set on patients with severe AEA (MN-221 combined with SOC, FIG. 2) was “absence of significant heart rate increase”. Also, in the data set on patients with severe AEA (MN-221 in addition to SOC treatment), the “Improvement in FEV1 values versus SOC” value is “generally appeared to be greater”. Besides, in the data set with patients with severe AEA (MN-221 with SOC, 4 of 16 patients, SOC only 54% (7 of 13)), the hospitalization rate stood at 25%. Further, the “MAP, QTc with combination therapy” value with telemetered dogs (MN-221 plus albuterol) was “not adversely changed”. In addition, the “heart rate, agent alone” value with telemetered dogs was “increased heart rate to a modest level”. Also, the “heart rate, MN-221 added on top of albuterol” value with telemetered dogs (clinically-relevant doses of both) is listed as “no additional increase in heart rate”. The “MAP or QTc, agent alone” value with telemetered dogs is listed as “No adverse changes”. Also, the “ex vivo Organ bioassay β1/β2” value in data set [4] (ratio of EC39 (atrium) to EC50 (trachea)) came to 36. Further, the “Competitive Binding β1/β2” value on Hu β2 [5] (ratio of IC50 β1 to β2) worked out at 42. Also, the agonist character entry in the data set with β1 (GP Rt atrium) (GP Rt atrium) is “a partial agonist”. In addition, the “ex vivo Organ bioassay est EC39 β1” value with β1 (GP Rt atrium) (GP Rt atrium (% isoprot), EC39 = 39% of isoproterenol maximum response) was ~1* μM. In addition, the Emax entry in the data set with β1 (GP Rt atrium) (GP Rt atrium, % of isoproterenol maximum response) was “Emax = 39%”. Also, the “reversal of ragweed-induced bronchoconstriction” value with ragweed sensitized dogs was “statistically significant, and near maximal reversal of bronchoconstriction”.

Take `CC(C)(C)NCC(O)c1ccc(O)c(CO)c1` (stereo not shown) [albuterol, reference compound]: in the data set with telemetered dogs, the “heart rate, agent alone” value was “increased heart rate to a modest level” and the “MAP or QTc, agent alone” value is on record as “No adverse changes”.
